Measurements from patent publication US20250155354A1, “METHOD AND DEVICE FOR HIGH THROUGHPUT CELL DEFORMABILITY MEASUREMENTS” (THE REGENTS OF THE UNIVERSITY OF CALIFORNIA, priority 2010, published 2025).

Test system: cervical carcinoma cells (HeLa)
Assay: Cell deformability measurement of drug-treated HeLa cells in microfluidic extensional flow (cytoskeletal disruption)
Format: cell-based
Procedure: Still referring to FIG. 4, post-processing (operation 450) is conducted on the data 80 to determine cell size, cell deformation, and cell circularity. The cells 50 passing through the system 10 may either be of a known phenotype or an unknown phenotype as illustrated by operation 400. As part of the post processing operation 450, the size of the cell 50 prior to entering the extensional region 40 is determined. The cell diameter (d) is determined as the average of the minimum cell diameters at […] to horizontal prior to entering the extensional region 40 (approximately four (4) frames prior to entering extension region 40). By taking the size measurements from the vertical axis, noise due to blur attributed to high velocities in the horizontal direction is reduced. As the cell 50 enters the extension region 40 and changes trajectory the deformability and circularity parameters are measured. In the frame where the largest deformation is calculated, the corresponding circularity is recorded as well. The deformability parameter is determined by the ratio a/b of the maximum diameter (a) in the vertical direction at 90°±30° to the minimum diameter (b) in the horizontal direction at 0°±30°. The circularity parameter is calculated by (4πA/L^2) wherein A is the area of the observed cell and L is the perimeter of the cell. […]

SMILES | cell deformability (a/b) versus untreated HeLa control (HeLa cells incubated in 2 μM nocodazole for 1 hour prior to deformability assay) | cell deformability (a/b) versus untreated HeLa control (HeLa cells incubated in 0.1 μM Latrunculin A for 4 hours prior to deformability assay)
COC(=O)Nc1nc2ccc(C(=O)c3cccs3)cc2[nH]1 [Nocodazole] | more rigid than untreated cells | –
C/C1=C/C(=O)O[C@@H]2C[C@@H](CC[C@H](C)/C=C\C=C\CC1)O[C@@](O)([C@@H]1CSC(=O)N1)C2 [Latrunculin, Latrunculin A] | – | significantly more deformable
